target: T1, human α7 nAChR (Homo sapiens, UniProt P36544); test: Evaluation of PAM activity with human α7 nACh receptor stably expressing cells (aequorin luminescence, FDSS7000); assay type: cell-based; settings: result in words; ratio of RLU (Max-Min) to control wells, ACh EC20
T1 construct: expressed in transfected cells; host or cells: GH4C1 cells derived from rat pituitary (ATCC CCL-82.2)
Text: Human α7 nAChR stably expressing cells were generated and cultured. In detail, GH4C1 cells derived from rat pituitary (cat#CCL-82.2, ATCC, USA) were used as a host cell. PcDNA3.1Zeo vector containing a nucleotide sequence encoding a protein GenBank BAC81731 and pcDNA3.1 vector containing human α7 nAChR gene (cat#V790-20, invitrogen, Carlsbad, Calif., USA) were transfected to the cells to give aequorins and human α7 nAChR stably expressing cells respectively. The aequorins and human α7 nAChR stably expressing cells were screened with Zeocin (cat#R25001, invitrogen, Carlsbad, Calif., USA) and Geneticin (cat #10131-027, invitrogen, Carlsbad, Calif., USA) respectively.
The cells were cultured in F-10 Nutrient Mixture (Ham) medium (cat #11550-043, invitrogen, Carlsbad, Calif., USA) containing 2.5% fetal bovine serum (cat #2917354, ICN Biomedicals, Inc, USA), 15% inactivated horse serum (cat #26050-088, invitrogen, Carlsbad, Calif., USA), 1 μg/mL Geneticin, and 5 μg/mL Puromycin (cat #14861-84, invitrogen, Carlsbad, Calif., USA), in a Collagen Type 1-coated dish (cat #4030-010, iwaki, Tokyo, Japan). During the culture, the medium was replaced with fresh medium in every 2 to 3 days, and the cells were treated with TrypLE Express (cat #45604-021, invitrogen, Carlsbad, Calif., USA) to collect them in every 7 days. Thus, the cells were subcultured.
7 Days after subculturing, the cells were treated with TrypLE Express to collect them when they were about 80% confluent. The cells were suspended in a reaction medium containing Hanks (cat #14065-056, invitrogen, Carlsbad, Calif., USA)/20 mmol/L Hepes (cat #15630-080, invitrogen, Carlsbad, Calif., USA), Buffer (pH 7.4), F-10 Nutrient Mixture (Ham), and 0.1 mg/mL Geneticin, and the suspension was seeded in a 384-well plate (cat #781090, Greiner, Germany) at 20000 cells/25 μL per well.
On the next day after seeding, Viviren (cat#E649X, Promega, Madison, Wis., USA) was added to the medium so that the final concentration could be 4 μmol/L (15 μL/well). The plates were centrifuged and then placed in the dark for 4 hours at room temperature.
Each of the test compounds was dissolved in DMSO to prepare each test sample at a concentration of 1000-fold the final concentration. To the solution was added Hanks/20 mM HEPES/0.2% BSA (cat#A3803, Sigma, St. Louis, Mo., USA), and the concentration was adjusted to 6-fold the final concentration.
FDSS7000 (Hamamatsu Photonics) was used to detect the luminescence signal evoked by α7 nAChR stimulation. The cells and a luminescent substrate were put on a plate, and the test sample was added thereto. […] After the addition of ACh, the luminescence signal (the central wavelength: 465 nm) was measured for 138 seconds to calculate RLU (Max-Min). The ratio of the RLU (Max-Min) of the test-compound-containing wells to that of the control wells was defined as PAM activity.

T1 sequence (P36544 23-502): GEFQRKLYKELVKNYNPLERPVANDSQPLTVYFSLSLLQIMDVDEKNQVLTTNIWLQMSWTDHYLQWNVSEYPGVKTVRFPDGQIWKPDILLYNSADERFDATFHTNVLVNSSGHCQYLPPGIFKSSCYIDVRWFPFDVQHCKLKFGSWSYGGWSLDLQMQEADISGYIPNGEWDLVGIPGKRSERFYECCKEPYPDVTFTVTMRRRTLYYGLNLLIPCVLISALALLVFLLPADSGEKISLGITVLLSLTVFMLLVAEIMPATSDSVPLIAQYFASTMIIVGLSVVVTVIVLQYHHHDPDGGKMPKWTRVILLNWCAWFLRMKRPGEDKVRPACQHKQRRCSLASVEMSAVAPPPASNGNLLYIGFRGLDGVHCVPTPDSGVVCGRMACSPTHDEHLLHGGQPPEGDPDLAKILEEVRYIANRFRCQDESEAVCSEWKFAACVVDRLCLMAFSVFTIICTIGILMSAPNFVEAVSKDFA

Row | Compound | PAM activity for α7 nAChR
1 | CCc1ccc2c(cnn2C2CCN(C(=O)NC3CCC(F)(F)CC3)CC2)c1 [Example 23] | stronger PAM activity than others
2 | CCOc1ccc2c(cnn2C2CCN(C(=O)NC3CCCCC3)CC2)c1 [Example 18, N-cyclohexyl-4-(5-ethoxy-1H-indazol-1-yl)piperidine-1-carboxamide] | stronger PAM activity than others
3 | CCc1ccc2c(cnn2C2CCN(C(=O)NC3CCCC3)CC2)c1 [Example 20] | stronger PAM activity than others

same assay, conditions: test compound 10 μmol/L; ACh added at EC20; ratio of RLU (Max-Min) of test wells to control wells

Row | Compound | α7PAM (%) @ 10 μmol/L [%]
4 | CC(C)(C)NC(=O)N1CCC(n2ncc3cc(C4CC4)ccc32)CC1 [Example 172] | 541
5 | Cc1c(C2CC2)ccc2c1cnn2C1CCN(C(=O)NC2CCC(F)(F)CC2)CC1 [Example 276] | 1351
6 | CCOc1ccc2c(cnn2C2CCN(C(=O)c3ccc(C(F)(F)F)cn3)CC2)c1 [Example 132] | 361
7 | COC1CCC(NC(=O)N2CCC(n3ncc4c(C5CC5)cccc43)CC2)CC1 (stereo not drawn) [Example 37] | 481
8 | [2H]C([2H])([2H])O[C@H]1CC[C@H](NC(=O)N2CCC(n3ncc4cc(C([2H])([2H])[2H])ccc43)CC2)CC1 [Example 308] | 1021
9 | O=C(C1CCOCC1)N1CCC(n2ncc3cc(F)ccc32)CC1 [Example 104] | 190
10 | COc1ccc2c(cnn2C2CCN(C(=O)NC3CCC(F)(F)CC3)CC2)c1C [Example 278] | 861
11 | CCOc1c(C)ccc2c1cnn2C1CCN(C(=O)NC2CCOCC2)CC1 [Example 273] | 341
12 | CCOc1cccc2c1cnn2C1CCN(C(=O)NC2CCCCC2)CC1 [Example 191] | 493
13 | CCOc1nn(C2CCN(C(=O)NC3CCOCC3)CC2)c2ccc(OC(F)(F)F)cc12 [Example 265] | 181
14 | COc1c(Br)ccc2c1cnn2C1CCN(C(=O)N[C@H]2CC[C@H](OC)CC2)CC1 [Example 285] | 293
15 | CCc1ccc2c(cnn2C2CCN(C(=O)C3CCC(F)(F)CC3)CC2)c1 [Example 113] | 654
16 | COc1c(C)ccc2c1cnn2C1CCN(C(=O)NC2CCOCC2)CC1 [Example 268] | 361
17 | COc1ccc2c(cnn2C2CCN(C(=O)NC3CCC(F)(F)CC3)CC2)c1C1CC1 [Example 280] | 299
18 | O=C(C1CCC(F)(F)CC1)N1CCC(n2ncc3cc(F)ccc32)CC1 [Example 134] | 237
19 | COC1CCC(NC(=O)N2CCC(n3ncc4c(C)cccc43)CC2)CC1 (stereo not drawn) [Example 94] | 154
20 | O=C(NC1CCOCC1)N1CCC(n2ncc3c(OC(F)(F)F)cccc32)CC1 [Example 304] | 380
21 | CCOc1ccc2c(cnn2C2CCN(C(=O)C3CCCC3)CC2)c1 [Example 110] | 291
22 | Cc1ccc2c(cnn2C2CCN(C(=O)NC3CCCC(F)(F)C3)CC2)c1 (stereo not drawn) [Example 82] | 888

Row | Compound | α7PAM (%) @ 10 μmol/L [%]
23 | CCc1ccc2c(cnn2[C@H]2CC[C@@H](C(=O)NC3CCCC3)CC2)c1 [Example 128] | 429
24 | COC(C)c1ccc2c(cnn2C2CCN(C(=O)N[C@H]3CC[C@H](OC)CC3)CC2)c1 (stereo partly drawn) [Example 245] | 182
25 | CO[C@H]1CC[C@@H](NC(=O)N2CCC(n3ncc4c(C5CC5)cccc43)CC2)CC1 [Example 160] | 207
26 | CCc1ccc2c(cnn2[C@H]2CC[C@@H](NC(=O)C3CCOCC3)CC2)c1 [Example 120] | 654
27 | CCOc1c(CC)ccc2c1cnn2C1CCN(C(=O)NC2CCOCC2)CC1 [Example 274] | 618
28 | COCc1c(C)ccc2c1cnn2C1CCN(C(=O)N[C@H]2CC[C@H](OC)CC2)CC1 [Example 214] | 207
29 | O=C(NC1CCCC1)N1CCC(n2ncc3cc(C4CC4)ccc32)CC1 [Example 171] | 1382
30 | CCc1ccc2c(cnn2C2CCN(C(=O)NC3CCCC3)CC2)c1 [Example 20] | 2215
31 | Cc1ccc2c(cnn2C2CCN(C(=O)N[C@H]3CC[C@H](OC(F)F)CC3)CC2)c1 [Example 154] | 811
32 | Cc1ccc2c(cnn2C2CCN(C(=O)NC3CCC(F)(F)CC3)CC2)c1F [Example 222] | 638
33 | COC1CCC(NC(=O)N2CCC(n3nc(C4CCOCC4)c4cc(C)ccc43)CC2)CC1 (stereo not drawn) [Example 55] | 603
34 | CC(C)Oc1ccc2c(cnn2C2CCN(C(=O)c3ccc(F)cn3)CC2)c1 [Example 115] | 182
35 | CCc1ccc2c(cnn2C2CCN(C(=O)NC3CCC(OC)CC3)CC2)c1 (stereo not drawn) [Example 92] | 356
36 | O=C(NC1CCC(F)(F)CC1)N1CCC(n2ncc3ccccc32)CC1 [Example 38] | 1101
37 | COc1ccc2c(cnn2C2CCN(C(=O)NC3CCCC3(F)F)CC2)c1 (stereo not drawn) [Example 87] | 514
38 | [2H]C([2H])([2H])O[C@H]1CC[C@H](NC(=O)N2CCC(n3ncc4c(OC)c(CC)ccc43)CC2)CC1 [Example 318] | 1084
39 | CO[C@H]1CC[C@H](NC(=O)N2CCC(n3ncc4c(C)c(C)ccc43)CC2)CC1 [Example 225] | 480
40 | CCc1ccc2c(cnn2[C@H]2CC[C@@H](NC(=O)[C@H]3CC[C@@H](OC)CC3)CC2)c1 [Example 124] | 1230
41 | CCc1cccc2c1cnn2C1CCN(C(=O)N[C@H]2CC[C@H](OC(F)F)CC2)CC1 [Example 159] | 187

same assay, conditions: test compound 10 μmol/L; ACh added at EC20; ratio of RLU (Max-Min) of test wells to control wells; read-out: α7PAM (%) @ 10 μmol/L

Row | Compound | activity at 10 µM [%]
42 | CCOc1c(C)ccc2c1cnn2C1CCN(C(=O)N[C@H]2CC[C@H](OC)CC2)CC1 [Example 145, 4-(4-ethoxy-5-methyl-1H-indazol-1-yl)-N-(trans-4-methoxycyclohexyl)piperidine-1-carboxamide] | 804
43 | COc1c(C2CC2)ccc2c1cnn2C1CCN(C(=O)N[C@H]2CC[C@H](OC)CC2)CC1 [Example 263, 4-(5-cyclopropyl-4-methoxy-1H-indazol-1-yl)-N-(trans-4-methoxycyclohexyl)piperidine-1-carboxamide] | 749
44 | Cc1ccc2c(cnn2C2CCN(C(=O)N[C@@H]3CCCCC3(F)F)CC2)c1 [Example 78, (R)—N-(2,2-difluorocyclohexyl)-4-(5-methyl-1H-indazol-1-yl)piperidine-1-carboxamide] | 987
45 | O=C(NC1CCCOC1)N1CCC(n2ncc3cc(OC(F)(F)F)ccc32)CC1 (stereo not drawn) [Example 300, N-(tetrahydro-2H-pyran-3-yl)-4-[5-(trifluoromethoxy)-1H-indazol-1-yl]piperidine-1-carboxamide] | 376
46 | O=C(NC1CCC1)N1CCC(n2ncc3cc(C(F)(F)F)ccc32)CC1 [Example 298, N-cyclobutyl-4-[5-(trifluoromethyl)-1H-indazol-1-yl]piperidine-1-carboxamide] | 315
47 | O=C(NC1CCCC1)N1CCC(n2ncc3cc(Cl)ccc32)CC1 [Example 33, 4-(5-chloro-1H-indazol-1-yl)-N-cyclopentylpiperidine-1-carboxamide] | 430
48 | COCc1nn(C2CCN(C(=O)NC3CCC(F)(F)CC3)CC2)c2ccc(C)cc12 [Example 36, N-(4,4-difluorocyclohexyl)-4-(3-(methoxymethyl)-5-methyl-1H-indazol-1-yl)piperidine-1-carboxamide] | 897
